Assay in all cases: relative viability (nuclei count vs DMSO), 5 days (fraction); higher = more cells survive
Compound in the experiment “VE-821 + Trametinib”: CS(=O)(=O)c1ccc(-c2cnc(N)c(C(=O)Nc3ccccc3)n2)cc1 [VE-821] + CC(=O)Nc1cccc(-n2c(=O)n(C3CC3)c(=O)c3c(Nc4ccc(I)cc4F)n(C)c(=O)c(C)c32)c1 [Trametinib] (partner 0.02 µM)
The method, boiled down:
(§1)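 Five library-drug doses in √10 steps were combined with a fixed anchor-drug dose, or a single drug was given alone, by pin tool to lung cancer cell lines in 1536-well plates the day after seeding. Nuclei were stained and counted after 5 days. Relative viability is the nuclei count in treated wells over that in vehicle wells, taken as the median of duplicate plates.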

Compound in the experiment “Vismodegib + Trametinib”: CS(=O)(=O)c1ccc(C(=O)Nc2ccc(Cl)c(-c3ccccn3)c2)c(Cl)c1 [Vismodegib] + CC(=O)Nc1cccc(-n2c(=O)n(C3CC3)c(=O)c3c(Nc4ccc(I)cc4F)n(C)c(=O)c(C)c32)c1 [Trametinib] (partner 0.02 µM)
The method, boiled down:
as §1

Compound in the experiment “Ruxolitinib + AZD7762”: N#CC[C@H](C1CCCC1)n1cc(-c2ncnc3[nH]ccc23)cn1 [Ruxolitinib] + NC(=O)Nc1cc(-c2cccc(F)c2)sc1C(=O)N[C@H]1CCCNC1 [AZD7762] (partner 0.2 µM)
In outline:
as §1

Compound in the experiment “Ruxolitinib + Olaparib”: N#CC[C@H](C1CCCC1)n1cc(-c2ncnc3[nH]ccc23)cn1 [Ruxolitinib] + O=C(c1cc(Cc2n[nH]c(=O)c3ccccc23)ccc1F)N1CCN(C(=O)C2CC2)CC1 [Olaparib] (partner 8 µM)
In outline: as §1

Take NCI-H2405: the relative viability stood at 0.643 with VE-821 + Trametinib (first compound 0.08 µM); 0.628 with VE-821 + Trametinib (first compound 0.253 µM); 0.53 with VE-821 + Trametinib (first compound 0.8 µM); 0.699 with VE-821 + Trametinib (first compound 2.53 µM); 0.546 with VE-821 + Trametinib (first compound 8 µM); 0.671 with Vismodegib + Trametinib (first compound 0.08 µM). Besides, the relative viability stood at 0.616 in the experiment with Vismodegib + Trametinib (first compound 0.253 µM); 0.592 with Vismodegib + Trametinib (first compound 0.8 µM); 0.598 with Vismodegib + Trametinib (first compound 2.53 µM); 0.638 in the experiment with Vismodegib + Trametinib (first compound 8 µM); 0.738 with Ruxolitinib + AZD7762 (first compound 0.08 µM); 0.792 with Ruxolitinib + AZD7762 (first compound 0.253 µM). Besides, the relative viability with Ruxolitinib + AZD7762 (first compound 0.8 µM) was found to be 0.818; with Ruxolitinib + AZD7762 (first compound 2.53 µM), 0.488; with Ruxolitinib + AZD7762 (first compound 8 µM), 0.416; in the experiment with Ruxolitinib + Olaparib (first compound 0.08 µM), 0.931; with Ruxolitinib + Olaparib (first compound 0.253 µM), 0.838; in the experiment with Ruxolitinib + Olaparib (first compound 0.8 µM), 0.882. Further, the relative viability with Ruxolitinib + Olaparib (first compound 2.53 µM) amounted to 0.633; with Ruxolitinib + Olaparib (first compound 8 µM) it was 0.573.
With NCI-H3122, the relative viability in the experiment with VE-821 + Trametinib (first compound 0.08 µM) is 0.219; in the experiment with VE-821 + Trametinib (first compound 0.253 µM), 0.216; in the experiment with VE-821 + Trametinib (first compound 0.8 µM) it was 0.235; with VE-821 + Trametinib (first compound 2.53 µM), 0.228; with VE-821 + Trametinib (first compound 8 µM) it was 0.265; with Vismodegib + Trametinib (first compound 0.08 µM), 0.247. The relative viability in the experiment with Vismodegib + Trametinib (first compound 0.253 µM) amounted to 0.254; with Vismodegib + Trametinib (first compound 0.8 µM), 0.216; with Vismodegib + Trametinib (first compound 2.53 µM), 0.247; with Vismodegib + Trametinib (first compound 8 µM) it was 0.202; with Ruxolitinib + AZD7762 (first compound 0.08 µM), 0.98; with Ruxolitinib + AZD7762 (first compound 0.253 µM), 1.07. For the same cell line, the relative viability was determined as 1.05 in the experiment with Ruxolitinib + AZD7762 (first compound 0.8 µM); 0.943 in the experiment with Ruxolitinib + AZD7762 (first compound 2.53 µM); 0.891 with Ruxolitinib + AZD7762 (first compound 8 µM); 0.7 in the experiment with Ruxolitinib + Olaparib (first compound 0.08 µM); 0.635 with Ruxolitinib + Olaparib (first compound 0.253 µM); 0.711 with Ruxolitinib + Olaparib (first compound 0.8 µM). The figures for the relative viability in the experiment with Ruxolitinib + Olaparib (first compound 2.53 µM) and with Ruxolitinib + Olaparib (first compound 8 µM) were 0.627 and 0.644, respectively.
Consider PC-3 [JPC-3], for which the relative viability in the experiment with VE-821 + Trametinib (first compound 0.08 µM) worked out at 0.727; with VE-821 + Trametinib (first compound 0.253 µM) it was 0.744; with VE-821 + Trametinib (first compound 0.8 µM) it was 0.701; with VE-821 + Trametinib (first compound 2.53 µM) it was 0.826; in the experiment with VE-821 + Trametinib (first compound 8 µM), 0.763; in the experiment with Vismodegib + Trametinib (first compound 0.08 µM) it was 0.695. Also, the relative viability amounted to 0.713 in the experiment with Vismodegib + Trametinib (first compound 0.253 µM); 0.636 in the experiment with Vismodegib + Trametinib (first compound 0.8 µM); 0.615 with Vismodegib + Trametinib (first compound 2.53 µM); 0.729 in the experiment with Vismodegib + Trametinib (first compound 8 µM); 0.82 with Ruxolitinib + AZD7762 (first compound 0.253 µM); 0.866 with Ruxolitinib + AZD7762 (first compound 0.8 µM). Also, the relative viability was 0.946 with Ruxolitinib + AZD7762 (first compound 2.53 µM); 0.814 with Ruxolitinib + AZD7762 (first compound 8 µM); 1.07 in the experiment with Ruxolitinib + Olaparib (first compound 0.253 µM); 1.13 with Ruxolitinib + Olaparib (first compound 0.8 µM); 1.03 with Ruxolitinib + Olaparib (first compound 2.53 µM); 0.922 with Ruxolitinib + Olaparib (first compound 8 µM).
With PC-14, the relative viability came out at 0.966 in the experiment with VE-821 + Trametinib (first compound 0.08 µM); 0.689 with VE-821 + Trametinib (first compound 0.253 µM); 0.656 in the experiment with VE-821 + Trametinib (first compound 0.8 µM); 0.63 with VE-821 + Trametinib (first compound 2.53 µM); 0.429 with VE-821 + Trametinib (first compound 8 µM); 0.606 with Vismodegib + Trametinib (first compound 0.08 µM). In addition, the relative viability was found to be 0.65 in the experiment with Vismodegib + Trametinib (first compound 0.253 µM); 0.694 with Vismodegib + Trametinib (first compound 0.8 µM); 0.659 with Vismodegib + Trametinib (first compound 2.53 µM); 0.796 with Vismodegib + Trametinib (first compound 8 µM); 0.356 with Ruxolitinib + AZD7762 (first compound 0.253 µM); 0.363 with Ruxolitinib + AZD7762 (first compound 0.8 µM). Further, the relative viability in the experiment with Ruxolitinib + AZD7762 (first compound 2.53 µM) amounted to 0.347; in the experiment with Ruxolitinib + AZD7762 (first compound 8 µM), 0.359; in the experiment with Ruxolitinib + Olaparib (first compound 0.253 µM), 0.302; with Ruxolitinib + Olaparib (first compound 0.8 µM), 0.233; with Ruxolitinib + Olaparib (first compound 2.53 µM) it was 0.353; with Ruxolitinib + Olaparib (first compound 8 µM), 0.298.
Turning to RERF-LC-KJ, the relative viability turned out to be 0.935 with VE-821 + Trametinib (first compound 0.08 µM); 0.788 in the experiment with VE-821 + Trametinib (first compound 0.253 µM); 0.704 in the experiment with VE-821 + Trametinib (first compound 0.8 µM); 0.81 with VE-821 + Trametinib (first compound 2.53 µM); 0.69 with VE-821 + Trametinib (first compound 8 µM); 0.847 with Vismodegib + Trametinib (first compound 0.08 µM). Moreover, the relative viability in the experiment with Vismodegib + Trametinib (first compound 0.253 µM) stood at 0.823; in the experiment with Vismodegib + Trametinib (first compound 0.8 µM) it was 0.84; in the experiment with Vismodegib + Trametinib (first compound 2.53 µM), 0.826; with Vismodegib + Trametinib (first compound 8 µM), 0.862; with Ruxolitinib + AZD7762 (first compound 0.08 µM), 0.949; with Ruxolitinib + AZD7762 (first compound 0.8 µM) it was 1. The relative viability was found to be 0.98 with Ruxolitinib + AZD7762 (first compound 2.53 µM); 1.01 with Ruxolitinib + AZD7762 (first compound 8 µM); 0.966 with Ruxolitinib + Olaparib (first compound 0.08 µM); 0.881 in the experiment with Ruxolitinib + Olaparib (first compound 0.253 µM); 0.948 with Ruxolitinib + Olaparib (first compound 0.8 µM); 0.844 in the experiment with Ruxolitinib + Olaparib (first compound 2.53 µM). Moreover, in the experiment with Ruxolitinib + Olaparib (first compound 8 µM), the relative viability was 0.626.
As for SW 900, the relative viability worked out at 0.675 with VE-821 + Trametinib (first compound 0.08 µM); 0.792 with VE-821 + Trametinib (first compound 0.253 µM); 0.687 with VE-821 + Trametinib (first compound 0.8 µM); 0.706 with VE-821 + Trametinib (first compound 2.53 µM); 0.403 with VE-821 + Trametinib (first compound 8 µM); 0.801 with Vismodegib + Trametinib (first compound 0.08 µM). Also, the relative viability came to 0.73 in the experiment with Vismodegib + Trametinib (first compound 0.253 µM); 1.1 with Vismodegib + Trametinib (first compound 0.8 µM); 0.921 in the experiment with Vismodegib + Trametinib (first compound 8 µM); 0.656 in the experiment with Ruxolitinib + AZD7762 (first compound 0.08 µM); 0.525 with Ruxolitinib + AZD7762 (first compound 0.253 µM); 0.722 with Ruxolitinib + AZD7762 (first compound 0.8 µM). In addition, the relative viability with Ruxolitinib + AZD7762 (first compound 2.53 µM) amounted to 0.891; with Ruxolitinib + AZD7762 (first compound 8 µM) it was 0.833; with Ruxolitinib + Olaparib (first compound 0.08 µM) it was 0.805; with Ruxolitinib + Olaparib (first compound 0.253 µM) it was 0.944; with Ruxolitinib + Olaparib (first compound 0.8 µM), 0.955; with Ruxolitinib + Olaparib (first compound 2.53 µM) it was 1.05. The relative viability in the experiment with Ruxolitinib + Olaparib (first compound 8 µM) turned out to be 0.91.

The record behind these values is the supplement of paper PMC10307832.
